Experimental data taken from patent US6218393A, “Anthranilic acid derivatives as multi drug resistance modulators” (priority 1997, dated 2001).
pIC50: −log10 of the molar value.

What was measured:
AR 1.0 cells [1] = assay: Potentiation of doxorubicin toxicity: proliferation assay (sulphorhodamine B); type: cell-based, mouse
Excerpt: (a) Selected compounds of formula (I) were examined for their ability to potentiate the toxicity of doxorubicin in AR 1.0 cells.

AR 1.0 cells [2] = assay: Drug accumulation assay: daunorubicin accumulation in AR 1.0 cells; type: cell-based; settings: Mus musculus, 100% = accumulation with verapamil 100 μM, 1 hr, 37° C.
Procedure, shortened: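 Daunorubicin accumulation was measured in cells plated 48 h beforehand. These were AR 1.0 cells, an MDR-resistant derivative of mouse EMT6 mammary carcinoma, cultured at 37 °C in 5% CO2 in RPMI 1640 plus 10% foetal calf serum and 2 mM glutamine.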

AR 1.0 cells [3] = assay: Potentiation index with doxorubicin titration; type: cell-based, mouse; settings: for Potentiation Index at RMA concentration 500 nM: Table C2, RMA 500 nM; for Potentiation Index at RMA concentration 300 nM: Table C2, RMA 300 nM; for Potentiation Index at RMA concentration 100 nM: Table C2, RMA 100 nM; for Potentiation Index at RMA concentration 30 nM: Table C2, RMA 30 nM
Procedure, shortened: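 Doxorubicin IC50 in AR 1.0 cells (MDR subline of EMT6 mouse mammary carcinoma) determined by sulphorhodamine B after 4-day culture across 0.263 nM-17.24 μM, with and without a fixed dose of test compound; their ratio gives the PI.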

[4] = Mus musculus, 96 h, compound alone, four day proliferation, read-out: Compound Toxicity (IC50)
[5] = with fixed doxorubicin 0.34 μm, four days, 5760 min, read-out: Toxicity with Cytotoxic Agent (IC50)

| Compound | pIC50 (AR 1.0 cells [1]; [4]) | pIC50 (AR 1.0 cells [1]; [5]) | pIC50 (AR 1.0 cells [2]) | Potentiation Index at RMA concentration 500 nM (AR 1.0 cells [3]) | Potentiation Index at RMA concentration 300 nM (AR 1.0 cells [3]) | Potentiation Index at RMA concentration 100 nM (AR 1.0 cells [3]) | Potentiation Index at RMA concentration 30 nM (AR 1.0 cells [3]) |
| --- | --- | --- | --- | --- | --- | --- | --- |
| COc1cc2c(cc1OC)CN(CCNC(=O)c1ccc([N+](=O)[O-])cc1NC(=O)c1ccc(C(C)C)cc1)CC2 [compound 9420, 2-(4-Isopropyl-benzoylamino)-N-[2-(6,7-dimethoxy-3,4-dihydro-1H-isoquinolin-2-yl)-ethyl]-4-nitro-benzamide] | 5.15 | 6.40 | 5.72 | 25 |  |  |  |
| COc1cc2c(cc1OC)CN(CCNC(=O)c1cccc(O)c1NC(=O)c1ccc(C(C)C)cc1)CC2 [compound 9424, 2-(4-Isopropyl-benzoylamino)-N-[2-(6,7-dimethoxy-3,4-dihydro-1H-isoquinolin-2-yl)-ethyl]-3-hydroxy-benzamide] | 4.41 | 5.59 | 5.60 | 37 |  |  |  |
| COc1cc2c(cc1OC)CN(CCNC(=O)c1ccccc1NC(=O)c1ccc(Oc3ccccc3)cc1)CC2 [compound 9426, 2-(4-Phenoxy-benzoylamino)-N-[2-(6,7-dimethoxy-3,4-dihydro-1H-isoquinolin-2-yl)-ethyl]-benzamide] | 5.15 | 7.22 | 6.16 | 65 |  |  |  |
| COc1cc2c(cc1OC)CN(CCNC(=O)c1ccccc1NC(=O)c1ccc(C(=O)c3ccccc3)cc1)CC2 [compound 9427, 2-(4-Benzoyl-benzoylamino)-N-[2-(6,7-dimethoxy-3,4-dihydro-1H-isoquinolin-2-yl)-ethyl]-benzamide] | 5.00 |  | 6.28 | 32 | 14 |  |  |
| COc1cc2c(cc1OC)CN(CCNC(=O)c1ccccc1NC(=O)c1ccc(Cc3ccccc3)cc1)CC2 [compound 9442, 2-(4-Benzyl-benzoylamino)-N-[2-(6,7-dimethoxy-3,4-dihydro-1H-isoquinolin-2-yl)-ethyl]-benzamide] | 5.14 | 7.30 | 6.00 | 67 | 27 |  |  |
| COc1cc2c(cc1OC)CN(CCc1ccc(NC(=O)c3ccccc3NC(=O)c3ccc(C(C)C)cc3)cc1)CC2 [compound 9447, 2-(4-Isopropyl-benzoylamino)-N-{4-[2-(6,7-dimethoxy-3,4-dihydro-1H-isoquinolin-2-yl)-ethyl]-phenyl}-benzamide] | 5.17 | 7.19 | 6.15 | 340 | 40 |  |  |
| COc1cc2c(cc1OC)CN(CCc1ccc(NC(=O)c3ccccc3NC(=O)c3ccccc3)cc1)CC2 [compound 9456, 2-Benzoylamino-N-{4-[2-(6,7-dimethoxy-3,4-dihydro-1H-isoquinolin-2-yl)-ethyl]-phenyl}-benzamide] | 5.30 |  | 6.52 |  |  | 112 |  |
| COc1cc2c(cc1OC)CN(CCNC(=O)c1ccccc1NC(=O)c1ccc(OC3CCCCC3)cc1)CC2 [compound 9459, 2-(4-Cyclohexyloxy-benzoylamino)-N-[2-(6,7-dimethoxy-3,4-dihydro-1H-isoquinolin-2-yl)-ethyl]-benzamide] | 5.07 | 7.05 | 6.19 | 112 | 45 |  |  |
| COc1cc2c(cc1OC)CN(CCNC(=O)c1ccccc1NC(=O)c1ccc(OCc3ccccc3)cc1)CC2 [compound 9460, 2-(4-Benzyloxy-benzoylamino)-N-[2-(6,7-dimethoxy-3,4-dihydro-1H-isoquinolin-2-yl)-ethyl]-benzamide] | 5.12 | 6.74 | 6.00 | 36 | 18 |  |  |
| COc1cc2c(cc1OC)CN(CCc1ccc(NC(=O)c3ccccc3NC(=O)c3ccc(C4CCCCC4)cc3)cc1)CC2 [compound 9461, 2-(4-Cyclohexyl-benzoylamino)-N-{4-[2-(6,7-dimethoxy-3,4-dihydro-1H-isoquinolin-2-yl)-ethyl]-phenyl}-benzamide] | 5.12 | 6.52 | 5.74 | 30 | 13 |  |  |
| COc1cc2c(cc1OC)CN(CCCNC(=O)c1ccccc1NC(=O)c1ccc(C3CCCCC3)cc1)CC2 [compound 9466] | 5.22 | 7.30 | 5.85 | 60 | 30 |  |  |
| COc1cc2c(cc1OC)CN(CCc1ccc(NC(=O)c3ccccc3NC(=O)c3cccc4ccccc34)cc1)CC2 [compound 9470] | 5.46 | 7.12 | 5.89 | 90 | 26 |  |  |
| COc1cc2c(cc1OC)CN(CCc1ccc(NC(=O)c3ccccc3NC(=O)c3cccs3)cc1)CC2 [compound 9471, Thiophene-2-carboxylic acid (2-{4-[2-(6,7-dimethoxy-3,4-dihydro-1H-isoquinolin-2-yl)-ethyl]-phenylcarbamoyl}-phenyl)-amide] | 5.59 |  | 6.70 | 230 | 115 |  |  |
| COc1cc2c(cc1OC)CN(CCc1ccc(NC(=O)c3ccccc3NC(=O)c3ccc4ccccc4c3)cc1)CC2 [compound 9476, Naphthaiene-2-carboxylic acid (2-{4-[2-(6,7-dimethoxy-3,4-dihydro-1H-isoquinolin-2-yl)-ethyl]-phenylcarbamoyl}-phenyl)-amide] | 5.70 |  | 6.46 | 136 | 83 |  |  |
| COc1cc2c(cc1OC)CN(CCc1ccc(NC(=O)c3ccccc3NC(=O)c3ccccc3OC)cc1)CC2 [compound 9477, 2-(2-Methoxy-benzoylamino)-N-{4-[2-(617-dimethoxy-3,4-dihydro-1H-isoquinolin-2-yl)-ethyl]-phenyl}-benzamide] | 5.40 |  | 6.39 | 63 | 29 |  |  |
| COc1cc2c(cc1OC)CN(CCc1ccc(NC(=O)c3ccccc3NC(=O)c3ccncc3)cc1)CC2 [compound 9483, N-(2-{4-[2-(6,7-Dimethoxy-3,4-dihydro-1H-isoquinolin-2-yl)-ethyl]-phenylcarbamoyl}-phenyl}-isonicotinamide] | 5.07 | 6.46 | 5.77 | 24 | 14 |  |  |
| COc1cc2c(cc1OC)CN(CCc1ccc(NC(=O)c3ccccc3NC(=O)c3ccccc3F)cc1)CC2 [compound 9489, 2-(2-Fluoro-benzoylamino)-N-{4-[2-(6,7-dimethoxy-3,4-dihydro-1H-isoquinolin-2-yl)-ethyl]-phenyl}-benzamide] | 5.15 | 7.30 | 6.82 | 303 | 192 | 77 |  |
| COc1cc2c(cc1OC)CN(CCc1ccc(NC(=O)c3ccccc3NC(=O)c3cnccn3)cc1)CC2 [compound 9493, Pyrazine-2-carboxylic acid (2-{4-[2-(6,7-dimethoxy-3,4-dihydro-1H-isoquinolin-2-yl)-ethyl]-phenylcarbamoyl}-phenyl)-amide] | 5.05 | 7.30 | 6.66 | 200 | 85 | 7.6 |  |
| COc1cc2c(cc1OC)CN(CCc1ccc(NC(=O)c3ccccc3NC(=O)c3ccccc3Cl)cc1)CC2 [compound 9494] | 5.05 | 7.30 | 6.40 | 148 | 38 |  |  |
| COc1cc2c(cc1OC)CN(CCc1ccc(NC(=O)c3ccccc3NC(=O)c3cccc(Cl)c3)cc1)CC2 [compound 9495, 2-(3-chloro-benzoylamino)-N-{4-[2-(617-dimethoxy-3,4-dihydro-1H-isoquinolin-2-yl)-ethyl]-phenyl}-benzamide] | 5.40 |  | 6.30 | 567 | 261 | 15 | 1.3 |
| COc1cc2c(cc1OC)CN(CCc1ccc(NC(=O)c3ccccc3NC(=O)c3ccc(Cl)cc3)cc1)CC2 [compound 9496, 2-(4-chloro-benzoylamino)-N-{4-[2-(6,7-dimethoxy-3,4-dihydro-1H-isoquinolin-2-yl)-ethyl]-phenyl}-benzamide] | 5.40 | 7.52 | 6.32 | 825 | 254 | 19 | 1.6 |
| COc1cc2c(cc1OC)CN(CCc1ccc(NC(=O)c3ccccc3NC(=O)c3ccccc3C)cc1)CC2 [compound 9497, 2-(2-Methyl-benzoylamino)-N-{4-[2-(6,7-dimethoxy-3,4-dihydro-1H-isoquinolin-2-yl}-ethyl]-phenyl}-benzamide] | 5.05 | 7.10 | 5.80 | 200 | 52 |  |  |
